Key:
[1] = biological target: T1, mOR-I7 (Mus musculus, UniProt Q9QWU6); assay: Novel olfactory functional assay (CCBSA), microplate calcium flux (Fluo4, FDSS) on HEK 293T overexpressing mOR-I7; assay type: cell-based; settings: for hit / potential ligand of mOR-I7 in screening of 30 odorants: carrier fraction 4 (bOBP and BSA) incubated with 16 μl of 1M odorant, ratio mOR-I7 on Wt, standardized to 1 mM ATP; for ligands of mOR-I7 in two independent calcium flux screenings of 30 odorants / hits / potential ligands of mOR-I7 through the 4 screenings: BSA as carrier; for ligands of mOR-I7 in two independent calcium flux screenings of 30 odorants: standardized to 100 μM ATP; for hits / potential ligands of mOR-I7 through the 4 screenings: calcium flux and cAMP screenings together
T1 construct: expressed in transfected cells; host or cells: HEK 293T
T1 sequence (Q9QWU6 1-327): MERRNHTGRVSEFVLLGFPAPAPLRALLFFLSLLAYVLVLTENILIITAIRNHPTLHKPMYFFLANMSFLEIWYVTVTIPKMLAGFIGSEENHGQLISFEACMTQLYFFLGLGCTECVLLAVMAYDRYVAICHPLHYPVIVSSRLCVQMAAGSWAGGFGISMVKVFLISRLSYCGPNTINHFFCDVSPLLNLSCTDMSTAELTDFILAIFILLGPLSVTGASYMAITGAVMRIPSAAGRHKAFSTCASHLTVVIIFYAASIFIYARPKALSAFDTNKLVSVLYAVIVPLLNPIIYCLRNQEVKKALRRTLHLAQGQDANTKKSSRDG
Experimental: (§1) A solution of BP including SA, OBP and/or olfactory mucus (see concentration in the text) was incubated in the presence of odorant in a sealed flask for 16 hours at 4° C. (FIG. 3A). Such incubated-BP solution was then used as tested complex on olfactory receptor-expressing cells. Prior to incubation with such complex, cells were incubated for 1 hour with 4 μM Fluo4-AM (Molecular Probe) in the presence of 1 mM probenecid, and then rinsed twice with Fluo4-AM free HBSS buffer. After injection of odorant-BP complex on OR expressing cells, calcium flux was followed by measuring fluorescence at 520 nm ([…]) on FDSS, a plate reader from Hamamatsu Photonics K.K. (Japan) at 25° C.
In an attempt to be closer to physiological process of olfaction and thereof to increase specificity and sensitivity of the cell-based assay described above, a novel olfactory functional assay was developed. Most of the time, mammalian smells volatile odorant molecules. However in the cell-based assay described above as in most cell-based assays, odorant molecules were injected into aqueous buffer. Such injection may lead to formation of micelles that can alter efficacy and specificity of ligands. Therefore a cell-based assay was developed focusing an a better solubilization of odorants. In summary, in a sealed flask, bovine olfactory mucus was incubated in the presence of an odorant (FIG. 3A). It was hereby tested if an odorant would be trapped and solubilized in that fluid. Thereafter, such solubilized odorant was injected onto cultured-cells overexpressing an olfactory receptor. Activation of this receptor could then be followed by conventional assay including fluorescent (FIGS. 3 B and C) and luminescent calcium assays.
For this novel assay, mOR-I7 activation was assessed by octanal. A constant volume of olfactory mucus was incubated in the presence of increasing amount of octanal ranging from 0 to 16 μl of a solution of 1M octanal. After 16 hours incubation at 4° C., bovine olfactory mucus was injected on HEK 293T overexpressing mOR-I7. Calcium flux was followed with Fluo4 on FDSS, a plate reader from Hamamatsu Photonics K.K. (Japan).
Capacity of fraction 4 to fulfil the role of odorant solubilizator was assessed in the newly proposed assay. Screening of 30 odorant molecules (FIG. 5A) was performed on HEK 293T wild type (FIG. 5C) or overexpressing mOR-I7 (FIG. 5B). Fraction 4 was incubated overnight at 4° C. […] These odorants led to at least one fold more activation of HEK 293T overexpressing mOR-I7 than the wild type counterpart. They can be classified into two groups. One group (FIG. 5 E (a) to (e)) gathers molecules that fit the olfactophore 1 depicted in FIG. 5 E (j). They are schematically made of 2 electronegative poles distanced by 6 carbons. They all contain a 6-8 carbon chain ended by an electronegative group as depicted by olfactophore 2 represented in FIG. 5 E (k).
However this fraction 4 contained two major proteins, bOBP and BSA. Thus the results of said Example could in this approach not rule out any implication of BSA into fraction 4 properties. Therefore the capacity of BSA to solubilize and thereof to enhance the efficacy of odorants in the novel cell based olfactory functional assay as described by the present invention has been tested. To be as close as possible to BSA concentration observed in fraction 4. BSA concentration was set up at 5×10^−6 M for the following experiments (marked by an arrow on FIG. 6 G). Fraction 4 and a solution of fatty acid-free BSA were incubated at 4° C. for 16 hours in the presence of increasing volume of 1M octanal. So-incubated solutions were then applied onto HEK 293T wt or overexpressing mOR-I7. Calcium-flux was followed on a plate reader (Hamamatsu Photonics K.K., Japan) with fluo4 as fluorescent dye (FIG. 6 A to F). […] Such phenomenon is usually observed in such fluorescence assay when increasing ligand concentrations are injected. […]

[2] = biological target: T1, mOR-I7; assay: cAMP level immunoassay (TROPIX) in the novel assay on HEK 293T overexpressing mOR-I7; assay type: cell-based; settings: BSA solution incubated with 16 μl of 1 M odorant; 20 minutes incubation
Experimental: Similarly to the first step of the fluorescence-based functional assay described above, BP solutions including SA, OBP and/or olfactory mucus (see concentration in the text) were incubated in the presence of odorant in a sealed flask for 16 hours at 4° C. (FIG. 3A). Such odorant-BP complexes were then applied to cultured-cell for 20 minutes at 37° C. cAMP level was then measured using the Tropix kit according to the manufacturer procedures (Applied Biosystem).
As depicted in FIG. 1, binding of odorant molecule to olfactory receptor triggers a cascade of molecular events. In the most commonly accepted pathway, the first second messenger is cAMP synthesized by adenylate cyclase type III. Therefore, a mean to test olfactory receptor activation is to assess variation of cellular cAMP pool after olfactory receptor activation. It is noteworthy that such assay could be performed in parallel to calcium flux assay described above to validate hits obtained during a screening.
Specificity of the novel cell based olfactory functional assay according to the present invention was tested following mOR-I7 activation after injection of these three odorants and two non related odorant, vanilline and piperonyl isobutyrate. Olfactory receptor activation was detected by cellular cAMP pool immunoassay. A solution of BSA was incubated overnight at 4° C.
As discussed above (FIG. 1), activation of olfactory receptor can also be followed through cAMP synthesis. […] Results are expressed as percent of response observed after incubation with 100 μM forskolin, an activator of adenylate cyclases. […] Scheme of the odorant molecules are depicted in FIG. 7E.

[3] = biological target: T1, mOR-I7; settings: literature (references); cited from earlier work
[4] = test system: hORL-424; assay: Fluorescent calcium flux assay on HEK 293T overexpressing hORL-424, odorant in assay buffer with or without bovine olfactory mucus; assay type: cell-based, human
Experimental: FIG. 2: Bovine olfactory mucus enhances hORL-424 activation by citronellal. (A and B) Calcium measurement was performed after activation of hORL-424 with citronellal in the presence of different amount of bovine olfactory mucus. 0 to 10 μl of mucus (0 to 10 μg of total protein) have been added to assay buffer. Calcium flux has been followed on FDSS (Hamamatsu Photonics K.K. plate reader, Japan) using Fluo4 as fluorescent dye. Histograms represent fluorescent signal observed in the presence or in the absence of 10 μl of bovine olfactory mucus. (C) Concentration response curve of HEK 293T overexpressing hORL-424 treated with citronellal. Gray boxes represent values obtained in the presence of bovine olfactory mucus. Calcium flux measurements have been performed on FDSS (Hamamatsu Photonics K.K. plate reader, Japan). (D and E) Traces obtained during single cell calcium imaging after addition of 500 μM octanal on HEK 293T overexpressing mOR-I7 in the absence (D) or in the presence of 10 μl of bovine olfactory mucus (E). Fura2 was used as fluorescent dye. Results are expressed as F340/F380 ratiometric measurement.
as §1
hORL-424, a human olfactory receptor, was overexpressed in HEK 293T, a […] (Hunter). […]

Row | SMILES | hit / potential ligand of mOR-I7 in screening of 30 odorants [1] | mOR-I7 activation by cellular cAMP pool [2] | ligands of mOR-I7 in two independent calcium flux screenings of 30 odorants [1] | hits / potential ligands of mOR-I7 through the 4 screenings [1] | also measured
1 | COc1cc(C=O)ccc1O [Vanilline] | – | did not lead to cAMP synthesis | – | – | –
2 | CCCCC(=O)C(C)=O [2,3 heptanedione] | potential ligands of mOR-I7 and hits | – | consistent | hits | –
3 | CC(C)C(=O)OCc1ccc2c(c1)OCO2 [piperonyl isobutyrate] | – | did not lead to cAMP synthesis | – | – | –
4 | CC(C)=CCCC(C)CC=O (stereo not shown) [citronellal] | potential ligands of mOR-I7 and hits | mOR-I7 ligands | – | hits | known activation of mOR-I7 [3]: activated specifically; improvement of hORL-424 activation on addition of bovine olfactory mucus ([4]; bovine olfactory mucus in assay buffer vs absence, fluo4, 96-well plate): approximately 9 folds; concentration necessary to reach maximum activation of hORL-424 ([4]; conventional assay, no mucus): up to 10 mM; concentration sufficient to reach maximum activation of hORL-424 ([4]; olfactory mucus added in the assay buffer): 0.5 mM
5 | COCCc1ccc(O)cc1 [4(2-methoxyethyl)phenol] | potential ligands of mOR-I7 | – | – | – | hit / potential ligand of mOR-I7 in screening of 30 odorants ([1]; listed as 4-(2-methoxyethyl)-phenol): hits
6 | CCCCCCCO [heptanol] | potential ligands of mOR-I7 | – | consistent | hits | hit / potential ligand of mOR-I7 in screening of 30 odorants ([1]; listed as 1-heptanol): hits

Continued, in another order:

Row | hit / potential ligand of mOR-I7 in screening of 30 odorants [1] | mOR-I7 activation by cellular cAMP pool [2] | ligands of mOR-I7 in two independent calcium flux screenings of 30 odorants [1] | hits / potential ligands of mOR-I7 through the 4 screenings [1] | SMILES | also measured
7 | potential ligands of mOR-I7 and hits | – | – | – | COc1cc(CCC(C)=O)ccc1O [Vanillyl acetone] | –
8 | potential ligands of mOR-I7 and hits | – | consistent | – | CC(C)=CCCC(C)CCO (stereo not shown) [citronellol] | –
9 | – | mOR-I7 ligands | consistent | hits | CCCCCCC=O [heptanal] | known activation of mOR-I7 [3]: activated specifically
10 | potential ligands of mOR-I7 | – | consistent | hits | CCCCCCCCO [octanol] | hit / potential ligand of mOR-I7 in screening of 30 odorants ([1]; listed as 1-octanol): hits
11 | potential ligands of mOR-I7 | – | – | – | CC/C=C\CCCCC=O [cis-6-nonenal] | hit / potential ligand of mOR-I7 in screening of 30 odorants ([1]; listed as 6-cis-nonenal): hits
